Converted amounts (≈) assume the structure as drawn.

Results on 4 molecules are retold here after patent publication US10329262B2, “Quinazolinone antibiotics” (priority 2013, dated 2019).

One data set relates to MRSA ATCC 27660. In words: Mouse peritonitis model of MRSA infection. In kind it is in vivo, mice. As to conditions: n = 6, 48 h. Here is the method:
We evaluated several compounds in in vivo mouse infection models, as well as in pharmacokinetic (PK) studies in mice (Table 1). The in vivo efficacy was determined using the rapid mouse peritonitis model of infection, in which the end point is death or survival in 48 hours. We initially dosed the compounds intravenously (iv) at a single dose level. If the compound has good in vivo efficacy after iv administration, we then evaluated efficacy at five dose levels. We also investigated in vivo efficacy after oral (po) administration.
Groups (n=6/group) of mice were infected with MRSA (0.5 mL of ATCC 27660 at a final concentration of 5×10^7 CFU/mL in 5% porcine mucin) intraperitoneally (ip). Following infection, mice were given iv doses by tail vein injection of compound 2, vancomycin (5 mg/kg, positive control), or vehicle at 30 min and 4.5 h after infection. The number of surviving mice was monitored for 48 h. The negative control (vehicle) typically results in the death of all mice. Quinazolinone 2 was dissolved in saline, sterile-filtered, and administered at doses of 2.5, 5, 7.5, 10, 20, and 30 mg/kg. The ED50 value was calculated using GraphPad prism 5.

The subject of data set [1] is S. aureus ATCC 29213 (MSSA). Nature of the data set: MIC, CLSI broth microdilution, S. aureus ATCC 29213. In kind it is cell-based, Staphylococcus aureus. The conditions noted are these: for MIC (w/ BSA): S. aureus ATCC 29213, in the presence of bovine serum albumin; for MIC: S. aureus strain ATCC 29213 (MSSA). Here is the method: (§1) MICs were evaluated following the CLSI microdilution method in BBL™ Mueller-Hinton II broth (Wikler et al., Clinical Laboratory Standards Institute Document M7-A7, 29 (2009)). Briefly, two-fold serial dilutions of compound were prepared in triplicate in 96-well plates and inoculated with 5×10^5 cfu/mL of the bacterial suspension. Plates were incubated at 37° C. for 16-20 hours.
(In general: Dilution methods test growth across graded concentrations, often in twofold steps.)

A further data set in a line: Pharmacokinetics in mice. The conditions noted are these: Table 1, ICR female mice, single dose iv. As for the experimental part:
We conducted first fast PK studies (n=2 mice per time point, 5 time points) dosing the compounds iv, followed by full PK studies for selected compounds (n=3 mice per time point, 10-12 time points per route of administration, iv and po).
A single dose of compound 2 was administered to mice (n=3 per time point) by tail vein injection or by oral gavage at 10 mg/kg. Blood was collected by cardiac puncture in heparinized syringes at 2, 5, 20, and 40 min and at 1, 2, 3, 4, 8, 18, and 24 h after iv dosing and at 0.5, 1, 2, 3, 4, 6, 9, 24, and 30 h after po dosing. Blood was centrifuged to obtain plasma. A 50-μL aliquot of plasma was mixed with 100 μL of acetonitrile containing internal standard (5 μM final concentration), followed by centrifugation at 20,000 g for 15 min. The supernatant was analyzed by reverse-phase UPLC. PK parameters were calculated as described in the Plasma protein binding and Pharmacokinetics sections below (see also Gooyit et al. J. Med. Chem. 54, 6676-6690 (2011)).
The area under the concentration-time curve up to the last quantifiable sampling time (AUC0-last) was calculated by the trapezoidal rule. AUC0-∞ was calculated as AUC0-last+(Clast/k), where Clast is the concentration at the last quantifiable sampling time and k is the elimination rate constant. The concentration at time=0 (C0) was estimated from the first sampling times by back-extrapolation using log-linear regression analysis. Half-lives (t1/2α and t1/2β) were estimated from the linear portion of the initial or terminal concentration-time data by linear regression, where the slope of the line was the rate constant k and t1/2α=ln 2/k. Volume of distribution (Vd) was calculated as the dose divided by the initial concentration (C0). Clearance (CL) was calculated from the dose divided by AUC0-∞. Oral bioavailability (F) was calculated by dividing the AUCpo by the AUCiv, as equivalent iv and po doses were administered.

Data set [2] deals with S. epidermidis ATCC 35547. In words: MIC, CLSI broth microdilution, S. epidermidis ATCC 35547. In kind it is cell-based. The conditions noted are these: Table 2, S. epidermidis ATCC 35547. As for the experimental part:
as §1

Data set [3] concerns S. haemolyticus ATCC 29970. In words: MIC, CLSI broth microdilution, S. haemolyticus ATCC 29970. As to conditions: Table 2, S. haemolyticus ATCC 29970. In kind it is cell-based. As for the experimental part: as §1
The next data set deals with S. aureus VRS2. In words: MIC, CLSI broth microdilution, S. aureus VRS2. Format: cell-based, Staphylococcus aureus. The conditions noted are these: Table 2, S. aureus VRS2. As for the experimental part:
as §1

The test system of another data set is S. aureus NRS100. Nature of the data set: MIC, CLSI broth microdilution, S. aureus NRS100. As to conditions: Table 2, S. aureus NRS100. In kind it is cell-based, Staphylococcus aureus. As for the experimental part:
as §1

Another data set concerns S. aureus NRS120. In words: MIC, CLSI broth microdilution, S. aureus NRS120. Format: cell-based, Staphylococcus aureus. The conditions noted are these: Table 2, S. aureus NRS120. As for the experimental part:
as §1

Another data set deals with S. aureus NRS119. Nature of the data set: MIC, CLSI broth microdilution, S. aureus NRS119. Format: cell-based, Staphylococcus aureus. The conditions noted are these: Table 2, S. aureus NRS119. Here is the method: as §1
In a further data set the test system is S. aureus VRS1. In words: MIC, CLSI broth microdilution, S. aureus VRS1. Format: cell-based, Staphylococcus aureus. As to conditions: Table 2, S. aureus VRS1. As for the experimental part:
as §1

Where [4] appears, read: 5 mg/kg iv at 30 min and 4.5 hr after infection.
Setting [5] is: 10 mg/kg iv at 30 min and 4.5 hr after infection.

Consider `Cc1nc2ccccc2c(=O)o1` [Compound 3], for which the “In Vivo Efficacy (survived/total mice)” value in the data set on MRSA ATCC 27660 (setting [4]) was 1/6 @ 5 mg/kg. In data set [1], the “MIC (w/ BSA)” value was found to be 4 µg/mL and the MIC (in general, the lowest concentration found to suppress growth) came out at 0.25 µg/mL (≈ 1.55 µM). Further, in “Pharmacokinetics in mice”, the “AUC (iv)” value is recorded as “AUC = 466 μg.min/mL”, the CL result is listed as “CL = 10.7 mL/min/kg” and the Vd result is reported as “Vd = 8.9 mL”.
For `CC(=O)Nc1cccc(-n2c(/C=C/c3ccc(F)cc3)nc3ccccc3c2=O)c1` [Compound 5], the “In Vivo Efficacy (survived/total mice)” value with MRSA ATCC 27660 (setting [5]) is 2/6 @ 10 mg/kg. In data set [1], the “MIC (w/ BSA)” value is 8 µg/mL and the MIC came out at 1 µg/mL (≈ 2.5 µM). In “Pharmacokinetics in mice”, the “AUC (iv)” value is listed as “AUC = 284 μg.min/mL”, the CL entry is “CL = 88.2 mL/min/kg” and the Vd result is recorded as “Vd = 55.0 mL”.
For the molecule `CS(=O)(=O)Nc1cccc(-n2c(/C=C/c3ccc(F)cc3)nc3ccccc3c2=O)c1` [Compound 6], the “In Vivo Efficacy (survived/total mice)” value in the data set with MRSA ATCC 27660 (setting [5]) was 0/6 @ 10 mg/kg. Moreover, in data set [1], the “MIC (w/ BSA)” value was found to be 1 µg/mL and the minimal inhibitory concentration (MIC) was found to be 0.125 µg/mL (≈ 0.287 µM). In the data set “Pharmacokinetics in mice”, the “AUC (iv)” value was “AUC = 819 μg.min/mL”, the CL result was “CL = 28.0 mL/min/kg” and the Vd result was “Vd = 91.8 mL”.
As to `CC(=O)Nc1cccc(-n2c(/C=C/c3ccc(C#N)cc3)nc3ccccc3c2=O)c1` [Compound 8], the MIC in data set [2] was found to be 0.06 µg/mL (≈ 0.148 µM); in data set [3], 0.25 µg/mL (≈ 0.615 µM); in the data set on S. aureus VRS2 it was 0.125 µg/mL (≈ 0.308 µM); in the data set on S. aureus NRS100, 1 µg/mL (≈ 2.46 µM); in data set [1] it was 0.25 µg/mL (≈ 0.615 µM); with S. aureus NRS120 it was 0.25 µg/mL (≈ 0.615 µM). The results for the MIC against S. aureus NRS119 and in the data set on S. aureus VRS1 were 0.25 µg/mL (≈ 0.615 µM) and 4 µg/mL (≈ 9.84 µM), respectively. Besides, in the data set on MRSA ATCC 27660 (setting [4]), the “In Vivo Efficacy (survived/total mice)” value is 1/6 @ 5 mg/kg. Further, the “MIC (w/ BSA)” value in data set [1] was found to be 2 µg/mL. The “AUC (iv)” value in “Pharmacokinetics in mice” is recorded as “AUC = 1187 μg.min/mL”. For the same molecule, in the data set “Pharmacokinetics in mice”, the CL entry is “CL = 131 mL/min/kg”. For the same molecule, the Vd result in the data set “Pharmacokinetics in mice” is on record as “Vd = 107 mL”.
